These results are taken from ChEMBL document CHEMBL4811285, “Effects of N-terminus modified Hx-amides on DNA binding affinity, sequence specificity, cellular uptake, and gene expression” (Bioorg Med Chem Lett, 2021).

Data set [1] in a line: Drug uptake in mouse NIH3T3 cells assessed as increase in fluorescence intensity at 20 uM after 24 hr by confocal microscopic analysis relative to control. Type of data set: ADME, cell-based. Conditions: nih3t3, 24 h.
The test system of data set [2] is TOP2A promoter. Nature of the data set: Binding affinity to 5'-AACGTT-3' DNA promoter TOP2A (unknown origin) at 3 uM by DNase1 footprinting based Autoradiogram analysis. It is filed as nucleic-acid assay.
In data set [3] the test system is TOP2A promoter. The experiment in a line: Binding affinity to 5'-AACGTT-3' DNA (unknown origin) at 3 uM by DNase1 footprinting based Autoradiogram analysis. It is filed as nucleic-acid assay.
A short description of data set [4]: Induction of TOP2A mRNA expression in human A549 cells assessed as fold increase in mRNA expression at 2 uM incubated for 18 hrs by real time PCR analysis. Type of data set: cell-based. (In general: Real-time PCR tracks product formation cycle by cycle.)
Data set [5] is described as follows: Drug uptake in mouse NIH3T3 cells assessed as fluorescence in nucleus upto 20 uM incubated for 24 hrs under dark condition by mito-tracker dye based confocal microscopic analysis. Type of data set: ADME, cell-based. Conditions: nih3t3, 24 h.
In data set [6] the test system is TOP2A promoter. The experiment in a line: Inhibition of 5'-TACGAT-3 (unknown origin) binding to 32P-radiolabeled DNA ICB2 -binding site (unknown origin) assessed as disruption NF-Y/ICB2 interaction using NIH3T3 cell nuclear protein extract at >= 1 uM incubated for 1 hr by electrophoretic mobility shift assay. Conditions: dose microM >=1, time 1.0 hrs. Background: In EMSA bound probe runs differently from free probe, usually more slowly.

Data set [7] can be described thus: Drug uptake in mouse NIH3T3 cells assessed as increase in fluorescence intensity at 1 uM after 24 hr by confocal microscopic analysis relative to control. Type of data set: ADME, cell-based. Conditions: nih3t3, 24 h.
Data set [8] in a line: Drug uptake in mouse NIH3T3 cells assessed as increase in fluorescence intensity at 10 uM after 24 hr by confocal microscopic analysis relative to control. Conditions: nih3t3, 24 h. It is filed as ADME, cell-based.
Data set [9] is described as follows: Drug uptake in mouse NIH3T3 cells assessed as fluorescence in mitochondria upto 20 uM incubated for 24 hrs under dark condition by mito-tracker red dye based confocal microscopic analysis. Type of data set: ADME. Conditions: nih3t3, 24 h.
In data set [10] the test system is TOP2A promoter. The experiment in a line: Inhibition of 5'-TACGAT-3 (unknown origin) binding to 32P-radiolabeled DNA ICB2 -binding site (unknown origin) assessed as disruption NF-Y/ICB2 interaction using NIH3T3 cell nuclear protein extract incubated for 1 hr by electrophoretic mobility shift assay.
The subject of data set [11] is TOP2A promoter. The experiment in a line: Binding affinity to 5'-AACGTT-3' DNA (unknown origin) at 0.5 uM by DNase1 footprinting based Autoradiogram analysis. Type of data set: nucleic-acid assay.
Data set [12] relates to TOP2A promoter. Nature of the data set: Binding affinity to 5'-AACGTT-3' DNA (unknown origin) at 1 uM by DNase1 footprinting based Autoradiogram analysis. Type of data set: nucleic-acid assay.
The subject of data set [13] is TOP2A promoter. The experiment in a line: Inhibition of 5'-TACGAT-3 (unknown origin) binding to 32P-radiolabeled DNA ICB2 -binding site (unknown origin) assessed as disruption NF-Y/ICB2 interaction using NIH3T3 cell nuclear protein extract at >= 3 uM incubated for 1 hr by electrophoretic mobility shift assay. Conditions: dose microM >=3, time 1.0 hrs.
Data set [14] relates to DNA. Nature of the data set: Binding affinity to DNA at 5'-ACTAGT-3' (unknown origin) upto 25 uM by DNase1 footprinting based autoradiogram analysis. Conditions: dose microM <=25. It is filed as nucleic-acid assay.
Data set [15] concerns DNA. Nature of the data set: Binding affinity to DNA at 5'-AAATTT-3' (unknown origin) upto 25 uM by DNase1 footprinting based autoradiogram analysis. It is filed as nucleic-acid assay. Conditions: dose microM <=25.
Data set [16] concerns DNA. Nature of the data set: Binding affinity to DNA at 5'-AAGCTT-3' (unknown origin) upto 25 uM by DNase1 footprinting based autoradiogram analysis. Conditions: dose microM <=25. Type of data set: nucleic-acid assay.
Data set [17] deals with DNA. The experiment in a line: Binding affinity to DNA at 5'-ACGCGT-3' (unknown origin) upto 25 uM by DNase1 footprinting based autoradiogram analysis. It is filed as nucleic-acid assay. Conditions: dose microM <=25.
For data set [18], the system named is DNA. The experiment in a line: Binding affinity to DNA at 5'-ACGGGT-3' (unknown origin) upto 25 uM by DNase1 footprinting based autoradiogram analysis. It is filed as nucleic-acid assay. Conditions: dose microM <=25.
Data set [19] deals with DNA. The experiment in a line: Binding affinity to DNA at 5'-ACGGGT-3' site (unknown origin) assessed as protection of the site from enzyme digestion at 5 uM by DNase1 footprinting based autoradiogram analysis. Type of data set: nucleic-acid assay.
Data set [20] concerns DNA. Nature of the data set: Binding affinity to DNA at 5'-ACCGGT-3' (unknown origin) upto 25 uM by DNase1 footprinting based autoradiogram analysis. It is filed as nucleic-acid assay. Conditions: dose microM <=25.
Data set [21] relates to TOP2A promoter. The experiment in a line: Binding affinity to 5'-AACGTT-3' DNA (unknown origin) at 10 uM by DNase1 footprinting based Autoradiogram analysis. Type of data set: nucleic-acid assay.
Data set [22] deals with DNA. The experiment in a line: Binding affinity to DNA at 5'-AAGCTT-3' site (unknown origin) assessed as protection of the site from enzyme digestion at 5 uM by DNase1 footprinting based autoradiogram analysis. Type of data set: nucleic-acid assay.

Activity calls are given as the source filed them. The calls are words filed in the database; no cut-off is given here.

`CN(C)CCCNC(=O)c1cc(NC(=O)c2nc(NC(=O)c3ccc4nc(-c5ccc(F)cc5)[nH]c4c3)cn2C)cn1C`: the Flu intensity in [1] turned out to be 15.01; in data set [7] it was 1.12; in data set [8] it was 6.08. Moreover, the outcome in the data set with TOP2A promoter [2] and in the data set on TOP2A promoter [3] was Active. For the same compound, the fold induction at 2 µM in [4] (Homo sapiens, A549, read-out: FC) was 1.7. In addition, the Drug uptake entry in data set [5] is “Active”. Further, the inhibition entry with TOP2A promoter [6] was “Active”.
As to `CN(C)CCCNC(=O)c1cc(NC(=O)c2nc(NC(=O)c3ccc4nc(-c5ccncc5)[nH]c4c3)cn2C)cn1C`, the Drug uptake entry in [9] is given as “Active”. Moreover, the Flu intensity worked out at 1.6 in [1], 1.29 in data set [7] and 1.49 in data set [8]. For the same compound, the Activity entry in [4] (human, a549, 18 h, 2 µM) is on record as “Not Active”. In addition, the inhibition result in the data set on TOP2A promoter [10] was “Dose-Dependent Effect”. Further, the result in the data set on TOP2A promoter [11] and with TOP2A promoter [12] was Active.
With `CN(C)CCCNC(=O)c1cc(NC(=O)c2nc(NC(=O)c3ccc4nc(-c5cc6ccccc6o5)[nH]c4c3)cn2C)cn1C`, the inhibition entry with TOP2A promoter [13] is “Active”.
Take `COc1ccc(-c2nc3ccc(C(=O)Nc4cn(C)c(C(=O)Nc5cc(C(=O)NCCCN(C)C)n(C)c5)n4)cc3[nH]2)cn1`: in the data set with TOP2A promoter [13], the inhibition result was “Active”.
For `COc1ccc(-c2nc3ccc(C(=O)Nc4cn(C)c(C(=O)Nc5cc(C(=O)NCCCN(C)C)n(C)c5)n4)cc3[nH]2)cc1`, the result in the data set with DNA [14], in the data set on DNA [15], in the data set on DNA [16], in the data set with DNA [17], in the data set on DNA [18] and in the data set on DNA [20] was inactive. Moreover, the outcome in the data set with TOP2A promoter [21] was inactive. The Flu intensity was 32.03 in [1], 2.75 in data set [7] and 13.96 in data set [8]. The result in the data set on DNA [19], in the data set with TOP2A promoter [3] and with DNA [22] was Active.
In the case of `CN(C)CCCNC(=O)c1cc(NC(=O)c2nc(NC(=O)c3ccc4nc(-c5ccco5)[nH]c4c3)cn2C)cn1C`, the inhibition result in the data set with TOP2A promoter [13] was “Active”.
